# Literature values, collected in patent US7235589B2, “Method of treating patients undergoing kidney dialysis” (Bio Numerik Pharmaceuticals, Inc., priority 2004, dated 2007).
# What was measured:
# [1] = accepted value
# humans = conditions: doses exceeding 40 g/m^2
# mice = conditions: intravenously, doses higher than the accepted oral LD50 for common table salt (3750 mg/kg)
# dogs = conditions: intravenously, doses higher than the accepted oral LD50 for common table salt (3750 mg/kg)
Structure (SMILES),oral LD50 [1],adverse effects (humans),adverse effects (mice),adverse effects (dogs)
[Cl-].[Na+] [common table salt],3750 mg/kg,,,
"O=S(=O)([O-])CCSSCCS(=O)(=O)[O-].[Na+].[Na+] [dimesna, disodium 2,2′-dithiobis ethane sulfonate]",,no adverse effects,no adverse effects,no adverse effects
